Several values for one entry are separate records, joined by “and”; a condition that tells them apart may be missing. Equal entries are not always repeated. Numbers after ± are expanded uncertainties.

The conditions of series [1]: Crystal; DTA.
A short description of series [2]: Molar enthalpy of transition or fusion. The conditions noted are these: Crystal; DSC.

Regarding `O.O.O.O.O.O.[Ca+2].[Cl-].[Cl-]` [calcium chloride hexahydrate], the Normal melting temperature in series [1] was 28.70 ± 1.1 °C and 28.30 ± 1.1 °C. Moreover, the “Molar enthalpy of transition or fusion” value in series [2] was 9.69 kcal/mol and 9.27 kcal/mol.
